This is an account of results in patent US9340507B2, “Substituted 4-pyridones and their use as inhibitors of neutrophil elastase activity” (Boehringer Ingelheim International GmbH, priority 2012, dated 2016).

By IC50 is commonly meant the concentration that inhibits the measured activity by half. Low values mean higher potency, high ones lower potency.

Chain of Human neutrophil elastase (P08246 30-267): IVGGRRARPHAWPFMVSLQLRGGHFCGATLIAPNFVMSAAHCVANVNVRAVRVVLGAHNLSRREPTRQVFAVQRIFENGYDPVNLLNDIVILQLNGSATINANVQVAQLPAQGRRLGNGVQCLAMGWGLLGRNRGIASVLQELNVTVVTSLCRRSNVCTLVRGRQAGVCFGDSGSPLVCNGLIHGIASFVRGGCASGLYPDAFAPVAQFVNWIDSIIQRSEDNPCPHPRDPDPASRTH

The target of the test is Human neutrophil elastase (Homo sapiens (Human), UniProt P08246). Kind of test: Human Neutrophil Elastase Assay. The settings on record: substrate MeOSuc-Ala-Ala-Pro-Val-AMC 250 μM, pH 7.5, fluorescence. It counts as biochemical. How it is done:
Human Neutrophil Elastase Assay
All other materials were of the highest grade commercially available.
The following buffers were used: Compound buffer: 100 mM Tris, 500 mM NaCl, adjusted to pH 7.5; Assay buffer: 100 mM Tris, 500 mM NaCl, adjusted to pH 7.5, containing 0.01% BSA.
Assay conditions: Test compounds were prediluted in DMSO and subsequently in compound buffer (5% DMSO final). […] After inactivation of the enzyme, fluorescence intensities were measured at 380 nm excitation and 460 nm emission wavelengths.
Each plate contains wells with a high value control (DMSO+enzyme+substrate) and wells with a low value control (DMSO+inactivated enzyme+substrate). IC50 values were estimated using a sigmoidal concentration response curve with variable slope. Means of low values were taken as 0%, means of high values as 100%. IC50 values of selected compound in the Neutrophil Elastase assay: […]
`CC[C@H](C)n1cc(C(=O)NCc2ccc(S(C)(=O)=O)cc2)c(=O)c(-c2cccc(C(F)(F)F)c2)c1C` [Example 12.1, (S)-1-sec-Butyl-6-methyl-4-oxo-5-(3-trifluoromethyl-phenyl)-1,4-dihydro-pyridine-3-carboxylic acid 4-methanesulfonyl-benzylamide] displayed an IC50 of 9 nM.

Consider `CC[C@H](C)n1cc(C(=O)NCc2ccc(S(C)(=O)=O)cc2)c(=O)c(-c2cccc(C(F)F)c2)c1C` [Example 12.2, (S)-1-sec-Butyl-5-(3-difluoromethyl-phenyl)-6-methyl-4-oxo-1,4-dihydro-pyridine-3-carboxylic acid 4-methanesulfonyl-benzylamide], for which the IC50 worked out at 12 nM.

For `CC[C@H](C)n1cc(C(=O)NCc2ccc(S(C)(=O)=O)cc2)c(=O)c(-c2ccnc(C(F)(F)F)c2)c1C` [Example 12.3, (S)-1-sec-Butyl-2-methyl-4-oxo-2′-trifluoromethyl-1,4-dihydro-[3,4]bipyridinyl-5-carboxylic acid 4-methanesulfonyl-benzylamide], it took 54 nM to reach half-maximal inhibition (IC50).

`CCC(CC)n1cc(C(=O)NCc2ccc(S(C)(=O)=O)cc2)c(=O)c(-c2cccc(C(F)F)c2)c1C` [Example 15.2, 5-(3-Difluoromethyl-phenyl)-1-(1-ethyl-propyl)-6-methyl-4-oxo-1,4-dihydro-pyridine-3-carboxylic acid 4-methanesulfonyl-benzylamide] registered an IC50 of 8 nM.

In turn, `CCC(CC)n1cc(C(=O)NCc2ccc(S(C)(=O)=O)cc2)c(=O)c(-c2ccnc(C(F)(F)F)c2)c1C` [Example 15.3, 1-(1-Ethyl-propyl)-2-methyl-4-oxo-2′-trifluoromethyl-1,4-dihydro-[3,4]bipyridinyl-5-carboxylic acid 4-methanesulfonyl-benzylamide] had an IC50 of 24 nM.

`COCCn1cc(C(=O)NCc2ccc(S(C)(=O)=O)c[n+]2[O-])c(=O)c(-c2cccc(C(F)(F)F)c2)c1C` [Example 16, 1-(2-Methoxy-ethyl)-6-methyl-4-oxo-5-(3-trifluoromethyl-phenyl)-1,4-dihydro-pyridine-3-carboxylic acid (5-methanesulfonyl-1-oxy-pyridin-2-ylmethyl)-amide]: the IC50 worked out at 63 nM.

In turn, `Cc1c(-c2cccc(C(F)F)c2)c(=O)c(C(=O)NCc2ccc(S(C)(=O)=O)cn2)cn1C(C)C` [Example 17.2, 5-(3-Difluoromethyl-phenyl)-1-isopropyl-6-methyl-4-oxo-1,4-dihydro-pyridine-3-carboxylic acid (5-methanesulfonyl-pyridin-2-ylmethyl)-amide] came in with an IC50 of 15 nM.

Turning to `Cc1c(-c2ccnc(C(F)(F)F)c2)c(=O)c(C(=O)NCc2ccc(S(C)(=O)=O)cn2)cn1C(C)C` [Example 17.3, 1-Isopropyl-2-methyl-4-oxo-2′-trifluoromethyl-1,4-dihydro-[3,4]bipyridinyl-5-carboxylic acid (5-methanesulfonyl-pyridin-2-ylmethyl)-amide], the IC50 worked out at 77 nM.

Take `Cc1c(-c2cccc(C(F)(F)F)c2)c(=O)c(C(=O)NCc2ccc(S(C)(=O)=O)cn2)cn1C1CCC1` [Example 18.1, 1-Cyclobutyl-6-methyl-4-oxo-5-(3-trifluoromethyl-phenyl)-1,4-dihydro-pyridine-3-carboxylic acid (5-methanesulfonyl-pyridin-2-ylmethyl)-amide]: the IC50 amounted to 32 nM.

`Cc1c(-c2cccc(C(F)F)c2)c(=O)c(C(=O)NCc2ccc(S(C)(=O)=O)cn2)cn1C1CCC1` [Example 18.2, 1-Cyclobutyl-5-(3-difluoromethyl-phenyl)-6-methyl-4-oxo-1,4-dihydro-pyridine-3-carboxylic acid (5-methanesulfonyl-pyridin-2-ylmethyl)-amide] came in with an IC50 of 35 nM.

As to `CC[C@@H](C)n1cc(C(=O)NCc2ccc(S(C)(=O)=O)cn2)c(=O)c(-c2cccc(C(F)F)c2)c1C` [Example 19.2, (R)-1-sec-Butyl-5-(3-difluoromethyl-phenyl)-6-methyl-4-oxo-1,4-dihydro-pyridine-3-carboxylic acid (5-methanesulfonyl-pyridin-2-ylmethyl)-amide], half-maximal inhibition (IC50) was put at 10 nM.

The molecule `CC[C@@H](C)n1cc(C(=O)NCc2ccc(S(C)(=O)=O)cn2)c(=O)c(-c2ccnc(C(F)(F)F)c2)c1C` [Example 19.3, (R)-1-sec-Butyl-2-methyl-4-oxo-2′-trifluoromethyl-1,4-dihydro-[3,4′]bipyridinyl-5-carboxylic acid (5-methanesulfonyl-pyridin-2-ylmethyl)-amide] gave an IC50 of 40 nM.

For the molecule `CC[C@H](C)n1cc(C(=O)NCc2ccc(S(C)(=O)=O)cn2)c(=O)c(-c2cccc(C(F)F)c2)c1C` [Example 20.2, (S)-1-sec-Butyl-5-(3-difluoromethyl-phenyl)-6-methyl-4-oxo-1,4-dihydro-pyridine-3-carboxylic acid (5-methanesulfonyl-pyridin-2-ylmethyl)-amide], the IC50 amounted to 11 nM.

`CC[C@H](C)n1cc(C(=O)NCc2ccc(S(C)(=O)=O)cn2)c(=O)c(-c2ccnc(C(F)(F)F)c2)c1C` [Example 20.3, (S)-1-sec-Butyl-2-methyl-4-oxo-2′-trifluoromethyl-1,4-dihydro-[3,4]bipyridinyl-5-carboxylic acid (5-methanesulfonyl-pyridin-2-ylmethyl)-amide] registered an IC50 of 63 nM.

With `COCCn1cc(C(=O)NCc2ccc(S(C)(=O)=O)cn2)c(=O)c(-c2cccc(C(F)(F)F)c2)c1C` [Example 21, 1-(2-Methoxy-ethyl)-6-methyl-4-oxo-5-(3-trifluoromethyl-phenyl)-1,4-dihydro-pyridine-3-carboxylic acid (5-methanesulfonyl-pyridin-2-ylmethyl)-amide], the IC50 was found to be 43 nM.

In turn, `Cc1c(-c2cccc(C(F)(F)F)c2)c(=O)c(C(=O)NCc2ccc(S(C)(=O)=O)cn2)cn1C1CCOC1` (stereo not shown) [Example 22, 6-Methyl-4-oxo-1-(tetrahydro-furan-3-yl)-5-(3-trifluoromethyl-phenyl)-1,4-dihydro-pyridine-3-carboxylic acid (5-methanesulfonyl-pyridin-2-ylmethyl)-amide] showed an IC50 of 27 nM.

As for `CCC(CC)n1cc(C(=O)NCc2ccc(S(C)(=O)=O)cn2)c(=O)c(-c2cccc(C(F)(F)F)c2)c1C` [Example 23.1, 1-(1-Ethyl-propyl)-6-methyl-4-oxo-5-(3-trifluoromethyl-phenyl)-1,4-dihydro-pyridine-3-carboxylic acid (5-methanesulfonyl-pyridin-2-ylmethyl)-amide], the IC50 came out at 12 nM.

With `CCC(CC)n1cc(C(=O)NCc2ccc(S(C)(=O)=O)cn2)c(=O)c(-c2cccc(C(F)F)c2)c1C` [Example 23.2, 5-(3-Difluoromethyl-phenyl)-1-(1-ethyl-propyl)-6-methyl-4-oxo-1,4-dihydro-pyridine-3-carboxylic acid (5-methanesulfonyl-pyridin-2-ylmethyl)-amide], the IC50 is 5 nM.

Take `CCC(CC)n1cc(C(=O)NCc2ccc(S(C)(=O)=O)cn2)c(=O)c(-c2ccnc(C(F)(F)F)c2)c1C` [Example 23.3, 1-(1-Ethyl-propyl)-2-methyl-4-oxo-2′-trifluoromethyl-1,4-dihydro-[3,4]bipyridinyl-5-carboxylic acid (5-methanesulfonyl-pyridin-2-ylmethyl)-amide]: the IC50 came out at 46 nM.

For `Cc1nnc(CNC(=O)c2cn(C3CCC3)c(C)c(-c3cccc(C(F)(F)F)c3)c2=O)o1` [Example 24.1, 1-Cyclobutyl-6-methyl-4-oxo-5-(3-trifluoromethyl-phenyl)-1,4-dihydro-pyridine-3-carboxylic acid (5-methyl-[1,3,4]oxadiazol-2-ylmethyl)-amide], the IC50 is 57 nM.

The molecule `Cc1nnc(CNC(=O)c2cn(C3CCC3)c(C)c(-c3cccc(C(F)F)c3)c2=O)o1` [Example 24.2, 1-Cyclobutyl-5-(3-difluoromethyl-phenyl)-6-methyl-4-oxo-1,4-dihydro-pyridine-3-carboxylic acid (5-methyl-[1,3,4]oxadiazol-2-ylmethyl)-amide] registered an IC50 of 55 nM.

In turn, `CC[C@@H](C)n1cc(C(=O)NCc2nnc(C)o2)c(=O)c(-c2cccc(C(F)(F)F)c2)c1C` [Example 25.1, (R)-1-sec-Butyl-6-methyl-4-oxo-5-(3-trifluoromethyl-phenyl)-1,4-dihydro-pyridine-3-carboxylic acid (5-methyl-[1,3,4]oxadiazol-2-ylmethyl)-amide] returned an IC50 of 37 nM.

Molecule `CC[C@@H](C)n1cc(C(=O)NCc2nnc(C)o2)c(=O)c(-c2cccc(C(F)F)c2)c1C` [Example 25.2, (R)-1-sec-Butyl-5-(3-difluoromethyl-phenyl)-6-methyl-4-oxo-1,4-dihydro-pyridine-3-carboxylic acid (5-methyl-[1,3,4]oxadiazol-2-ylmethyl)-amide] gave an IC50 of 30 nM.

Take `CC[C@H](C)n1cc(C(=O)NCc2nnc(C)o2)c(=O)c(-c2cccc(C(F)F)c2)c1C` [Example 26, (S)-1-sec-Butyl-5-(3-difluoromethyl-phenyl)-6-methyl-4-oxo-1,4-dihydro-pyridine-3-carboxylic acid (5-methyl-[1,3,4]oxadiazol-2-ylmethyl)-amide]: 22 nM corresponded to half-maximal inhibition (IC50).

Molecule `Cc1c(-c2ccnc(C(F)(F)F)c2)c(=O)c(C(=O)NCc2ccc([S+](C)[O-])cc2)cn1C(C)C` (stereo not shown) [Example 27.2, 1-Isopropyl-2-methyl-4-oxo-2′-trifluoromethyl-1,4-dihydro-[3,4′]bipyridinyl-5-carboxylic acid 4-methanesulfinyl-benzylamide] gave an IC50 of 51 nM.
